# Assay results: ChEMBL document CHEMBL3045554, “Synthesis and antimicrobial screening of N-(1-methyl-1H-pyrazole-4-carbonyl)-thiourea derivatives” (2012)
# Tests used:
# Assay type in all cases: functional
# [1] = test system: Klebsiella pneumoniae; assay: Antimicrobial activity against Klebsiella pneumoniae 126/2007 by microdilution method
# [2] = test system: Bacillus subtilis; assay: Antimicrobial activity against Bacillus subtilis 10.10.2006 by microdilution method
# [3] = test system: Escherichia coli; assay: Antimicrobial activity against Escherichia coli 637/2007 by microdilution method
# [4] = test system: Enterococcus faecalis; assay: Antimicrobial activity against Enterococcus faecalis 13773 by microdilution method
# [5] = test system: Acinetobacter baumannii; assay: Antimicrobial activity against Acinetobacter baumannii 15896 by microdilution method
# [6] = test system: Pseudomonas aeruginosa; assay: Antimicrobial activity against Pseudomonas aeruginosa 5541 by microdilution method
# [7] = test system: Staphylococcus aureus; assay: Antimicrobial activity against Staphylococcus aureus by microdilution method
smiles,measurement,setting,value
CCCc1ccc(NC(=S)NC(=O)c2cnn(C)c2)cc1,MIC,[1],> 1000 µg/mL
same,MIC,[2],> 1000 µg/mL
same,MIC,[3],> 1000 µg/mL
same,MIC,[4],> 1000 µg/mL
same,MIC,[5],> 1000 µg/mL
same,MIC,[6],> 1000 µg/mL
same,MIC,[7],> 1000 µg/mL
CCC(C)c1ccc(NC(=S)NC(=O)c2cnn(C)c2)cc1 (stereo not drawn),MIC,[1],> 1000 µg/mL
same,MIC,[2],> 1000 µg/mL
same,MIC,[3],> 1000 µg/mL
same,MIC,[4],> 1000 µg/mL
same,MIC,[5],> 1000 µg/mL
same,MIC,[6],> 1000 µg/mL
same,MIC,[7],> 1000 µg/mL
CC(C)c1ccccc1NC(=S)NC(=O)c1cnn(C)c1,MIC,[1],1000 µg/mL
same,MIC,[2],> 1000 µg/mL
same,MIC,[3],> 1000 µg/mL
same,MIC,[4],> 1000 µg/mL
same,MIC,[5],> 1000 µg/mL
same,MIC,[6],> 1000 µg/mL
same,MIC,[7],> 1000 µg/mL
Cn1cc(C(=O)NC(=S)Nc2ccccc2C(C)(C)C)cn1,MIC,[1],> 1000 µg/mL
same,MIC,[2],> 1000 µg/mL
same,MIC,[3],> 1000 µg/mL
same,MIC,[4],> 1000 µg/mL
same,MIC,[5],1000 µg/mL
same,MIC,[6],> 1000 µg/mL
same,MIC,[7],> 1000 µg/mL
